What all share (assay type): binding
The target in experiment [1] is T1, Xenopus tropicalis Opn5m (Xenopus tropicalis, UniProt A0A8J0QRX8).
T1 construct: gene opn5; 21 residues truncated from the C-terminus; expressed in HEK293S cells; purified in DDM on Rho1D4-agarose
T1 sequence (A0A8J0QRX8 1-322): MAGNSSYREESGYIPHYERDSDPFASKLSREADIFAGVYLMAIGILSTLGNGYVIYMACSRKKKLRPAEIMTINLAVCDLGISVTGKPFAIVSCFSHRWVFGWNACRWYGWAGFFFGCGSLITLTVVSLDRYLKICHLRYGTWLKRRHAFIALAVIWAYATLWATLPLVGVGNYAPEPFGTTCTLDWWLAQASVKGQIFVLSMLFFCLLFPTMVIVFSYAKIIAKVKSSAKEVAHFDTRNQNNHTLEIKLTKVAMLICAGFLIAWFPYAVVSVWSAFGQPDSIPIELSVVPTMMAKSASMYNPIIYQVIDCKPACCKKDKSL
Kind of experiment: reconstitution, purification, HPLC of retinal oximes. To be noted: covalent; 40 uM 11-cis retinal added to collected cell membranes, 4 °C, 24 h, dark; pH 6.5; isomer composition, no affinity.

Experiment [2] addresses T2, Xenopus tropicalis Opn5m (Xenopus tropicalis, UniProt A0A8J0QRX8, L208F).
T2 construct: gene opn5; 21 residues truncated from the C-terminus; expressed in HEK293S cells; purified in DDM on Rho1D4-agarose
T2 sequence (A0A8J0QRX8 1-322 L208F): T1 sequence (A0A8J0QRX8 1-322) with L208F
Described as above. The conditions noted are these: covalent; 40 uM 11-cis retinal added to collected cell membranes, 4 °C, 24 h, dark; pH 6.5; isomer composition, no affinity.

Experiment [3] deals with T3, Xenopus tropicalis Opn5m (Xenopus tropicalis, UniProt A0A8J0QRX8, W163F).
T3 construct: gene opn5; 21 residues truncated from the C-terminus; expressed in HEK293S cells; purified in DDM on Rho1D4-agarose
T3 sequence (A0A8J0QRX8 1-322 W163F): T1 sequence (A0A8J0QRX8 1-322) with W163F
The description is as above. The conditions noted are these: covalent; 40 uM 11-cis retinal added to collected cell membranes, 4 °C, 24 h, dark; pH 6.5; isomer composition, no affinity.

The target of experiment [4] is T4, Xenopus tropicalis Opn5m (Xenopus tropicalis, UniProt A0A8J0QRX8, T184N).
T4 construct: gene opn5; 21 residues truncated from the C-terminus; expressed in HEK293S cells; purified in DDM on Rho1D4-agarose
T4 sequence (A0A8J0QRX8 1-322 T184N): T1 sequence (A0A8J0QRX8 1-322) with T184N
Kind of experiment: absorption spectrum of purified reconstituted pigment, difference spectrum. The conditions noted are these: covalent; all-trans retinal added, dark versus yellow light (>500 nm), 0 °C, pH 6.5; spectral value, no affinity.

Experiment [5] addresses T5, Xenopus tropicalis Opn5m (Xenopus tropicalis, UniProt A0A8J0QRX8, T184Q).
T5 construct: gene opn5; 21 residues truncated from the C-terminus; expressed in HEK293S cells; purified in DDM on Rho1D4-agarose
T5 sequence (A0A8J0QRX8 1-322 T184Q): T1 sequence (A0A8J0QRX8 1-322) with T184Q
The experiment is described as above. To be noted: covalent; all-trans retinal added, dark versus yellow light (>500 nm), 0 °C, pH 6.5; spectral value, no affinity.

Experiment [6] has as its target T2, Xenopus tropicalis Opn5m. Described as above. To be noted: covalent; 40 uM all-trans retinal added to collected cell membranes, dark versus yellow light (>500 nm), 0 °C, pH 6.5; spectral value, no affinity.
Experiment [7] concerns the target T6, Xenopus tropicalis Opn5m (Xenopus tropicalis, UniProt A0A8J0QRX8, T184M).
T6 construct: gene opn5; 21 residues truncated from the C-terminus; expressed in HEK293S cells; purified in DDM on Rho1D4-agarose
T6 sequence (A0A8J0QRX8 1-322 T184M): T1 sequence (A0A8J0QRX8 1-322) with T184M
The experiment is described as above. To be noted: covalent; all-trans retinal added, dark versus yellow light (>500 nm), 0 °C, pH 6.5; spectral value, no affinity.

The target of experiment [8] is T7, Xenopus tropicalis Opn5m (Xenopus tropicalis, UniProt A0A8J0QRX8, T184G).
T7 construct: gene opn5; 21 residues truncated from the C-terminus; expressed in HEK293S cells; purified in DDM on Rho1D4-agarose
T7 sequence (A0A8J0QRX8 1-322 T184G): T1 sequence (A0A8J0QRX8 1-322) with T184G
The description is as above. The conditions noted are these: covalent; all-trans retinal added, dark versus yellow light (>500 nm), 0 °C, pH 6.5; spectral value, no affinity.

The target in experiment [9] is T1, Xenopus tropicalis Opn5m. The description is as above. To be noted: covalent; all-trans retinal added, dark versus yellow light (>500 nm), 0 °C, pH 6.5; spectral value, no affinity.
Experiment [10] concerns the target T8, Xenopus tropicalis Opn5m (Xenopus tropicalis, UniProt A0A8J0QRX8, T184A).
T8 construct: gene opn5; 21 residues truncated from the C-terminus; expressed in HEK293S cells; purified in DDM on Rho1D4-agarose
T8 sequence (A0A8J0QRX8 1-322 T184A): T1 sequence (A0A8J0QRX8 1-322) with T184A
The description is as above. The conditions noted are these: covalent; all-trans retinal added, dark versus yellow light (>500 nm), 0 °C, pH 6.5; spectral value, no affinity.

Experiment [11] has as its target T9, Xenopus tropicalis Opn5m (Xenopus tropicalis, UniProt A0A8J0QRX8, T184S).
T9 construct: gene opn5; 21 residues truncated from the C-terminus; expressed in HEK293S cells; purified in DDM on Rho1D4-agarose
T9 sequence (A0A8J0QRX8 1-322 T184S): T1 sequence (A0A8J0QRX8 1-322) with T184S
Described as above. The conditions noted are these: covalent; all-trans retinal added, dark versus yellow light (>500 nm), 0 °C, pH 6.5; spectral value, no affinity.

Experiment [12] has as its target T10, Xenopus tropicalis Opn5m (Xenopus tropicalis, UniProt A0A8J0QRX8, T184C).
T10 construct: gene opn5; 21 residues truncated from the C-terminus; expressed in HEK293S cells; purified in DDM on Rho1D4-agarose
T10 sequence (A0A8J0QRX8 1-322 T184C): T1 sequence (A0A8J0QRX8 1-322) with T184C
The description is as above. To be noted: covalent; all-trans retinal added, dark versus yellow light (>500 nm), 0 °C, pH 6.5; spectral value, no affinity.

Here are results for 2 compounds from paper PMC8766551, “Amino acid residue at position 188 determines the UV-sensitive bistable property of vertebrate non-visual opsin Opn5” (Communications Biology, 2022).

Positions count from the first letter of the chain named.

On to `CC1=C(/C=C/C(C)=C/C=C\C(C)=C\C=O)C(C)(C)CCC1` [11-cis retinal], for which the entries for the “% of bound retinal as 11-cis isomer” value at Xenopus tropicalis Opn5m [1], on Xenopus tropicalis Opn5m [2] and on Xenopus tropicalis Opn5m [3] were 91%, 88% and 84%, respectively.

As to `CC1=C(/C=C/C(C)=C/C=C/C(C)=C/C=O)C(C)(C)CCC1` [all-trans retinal], the λmax on Xenopus tropicalis Opn5m [4] was 460 nm; on Xenopus tropicalis Opn5m [5], 483 nm; on Xenopus tropicalis Opn5m [6], 475 nm; at Xenopus tropicalis Opn5m [7], 467 nm; at Xenopus tropicalis Opn5m [8], 477 nm; at Xenopus tropicalis Opn5m [9], 474 nm. The λmax on Xenopus tropicalis Opn5m [10] is 481 nm; on Xenopus tropicalis Opn5m [11], 478 nm; on Xenopus tropicalis Opn5m [12], 470 nm.
